ChEMBL document CHEMBL1201862, “PubChem BioAssay data set” (2004)
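Exposure lasted 48 hours, with cells grown in 96-well plates and compounds tested at five concentrations. The concentration for 50% growth inhibition is given as GI50.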 The source made the active and inactive calls. No stated cut-off is given here; in the data, active = GI50 up to about 1.1 µM and inactive = higher.

Assays:
Test in all cases: NCI-60 cell line screen, 48 h
Hs-578T = system: Hs-578T
K562 = system: K562
SF-295 = system: SF-295
XF498 = system: XF498
CCRF-CEM = system: CCRF-CEM
TK-10 = system: TK-10
COLO 205 = system: COLO 205
ACHN = system: ACHN
NCI-H460 = system: NCI-H460
LOX IMVI = system: LOX IMVI
M14 = system: M14
DMS-273 = system: DMS-273
HCT-15 = system: HCT-15
SF-268 = system: SF-268
SNB-75 = system: SNB-75
UO-31 = system: UO-31
UACC-62 = system: UACC-62
MDA-MB-231 = system: MDA-MB-231
SK-MEL-28 = system: SK-MEL-28
KM12 = system: KM12
MOLT-4 = system: MOLT-4
T47D = system: T47D
NCI-H226 = system: NCI-H226
MDA-MB-435 = system: MDA-MB-435
DMS-114 = system: DMS-114
SK-MEL-2 = system: SK-MEL-2
SN12C = system: SN12C
PC-3 = system: PC-3
NCI-H23 = system: NCI-H23
OVCAR-5 = system: OVCAR-5
CAKI-1 = system: CAKI-1
MDA-N = system: MDA-N
SW-620 = system: SW-620
UACC-257 = system: UACC-257
SR = system: SR
KM-20L2 = system: KM-20L2
U-251 = system: U-251
IGROV-1 = system: IGROV-1
NCI/ADR-RES = system: NCI/ADR-RES
LXFL 529 = system: LXFL 529
HOP-62 = system: HOP-62
A549 = system: A549
RPMI-8226 = system: RPMI-8226
EKVX = system: EKVX
MCF7 = system: MCF7
DLD-1 = system: DLD-1
RXF 393 = system: RXF 393
HCT-116 = system: HCT-116
Malme-3M = system: Malme-3M
DU-145 = system: DU-145
OVCAR-8 = system: OVCAR-8
HT-29 = system: HT-29
OVCAR-3 = system: OVCAR-3
HCC 2998 = system: HCC 2998
SNB-19 = system: SNB-19
786-0 = system: 786-0
A498 = system: A498
HOP-92 = system: HOP-92
OVCAR-4 = system: OVCAR-4
HL-60 = system: HL-60
NCI-H522 = system: NCI-H522
SK-MEL-5 = system: SK-MEL-5
SF-539 = system: SF-539
BT-549 = system: BT-549
SK-OV-3 = system: SK-OV-3
SNB-78 = system: SNB-78
M19-MEL = system: M19-MEL

## Cc1cc(NC(=O)NC(=O)c2ccccc2NC(=O)CN)ccc1Oc1ncc(Br)cn1
Hs-578T
  GI50: 0.0308 µM (active)
K562
  GI50: 0.419 µM (active)
SF-295
  GI50: 0.0661 µM (active)
XF498
  GI50: 13.9 µM (inactive)
CCRF-CEM
  GI50: 0.403 µM (active)
TK-10
  GI50: 9.62 µM (inactive)
COLO 205
  GI50: 0.249 µM (active)
ACHN
  GI50: 9.44 µM (inactive)
NCI-H460
  GI50: 0.743 µM (active)
LOX IMVI
  GI50: 0.971 µM (active)
M14
  GI50: 0.592 µM (active)
DMS-273
  GI50: 0.313 µM (active)
HCT-15
  GI50: 1.41 µM
SF-268
  GI50: 1.55 µM (inactive)
SNB-75
  GI50: 0.139 µM (active)
UO-31
  GI50: 0.246 µM (active)
UACC-62
  GI50: 0.207 µM (active)
MDA-MB-231
  GI50: 0.297 µM (active)
SK-MEL-28
  GI50: 0.859 µM (active)
KM12
  GI50: 0.401 µM (active)
MOLT-4
  GI50: 2.5 µM (inactive)
T47D
  GI50: 12.3 µM (inactive)
NCI-H226
  GI50: 1.18 µM (inactive)
MDA-MB-435
  GI50: 0.145 µM (active)
DMS-114
  GI50: 0.191 µM (active)
SK-MEL-2
  GI50: 0.437 µM (active)
SN12C
  GI50: 1.16 µM (inactive)
PC-3
  GI50: 0.217 µM (active)
NCI-H23
  GI50: 0.74 µM (active)
OVCAR-5
  GI50: 12.3 µM (inactive)
CAKI-1
  GI50: 0.0627 µM (active)
MDA-N
  GI50: 0.105 µM (active)
SW-620
  GI50: 0.618 µM (active)
UACC-257
  GI50: 3.52 µM (inactive)
SR
  GI50: 1.06 µM (active)
KM-20L2
  GI50: 0.676 µM (active)
U-251
  GI50: 0.743 µM (active)
IGROV-1
  GI50: 0.847 µM (active)
NCI/ADR-RES
  GI50: 0.13 µM (active)
LXFL 529
  GI50: 1.73 µM (inactive)
HOP-62
  GI50: 0.215 µM (active)
A549
  GI50: 0.879 µM (active)
RPMI-8226
  GI50: 1.57 µM (inactive)
EKVX
  GI50: 1.52 µM (inactive)
MCF7
  GI50: 0.259 µM (active)
DLD-1
  GI50: 1.4 µM (inactive)
RXF 393
  GI50: 0.0439 µM (active)
HCT-116
  GI50: 0.33 µM (active)
Malme-3M
  GI50: 0.0632 µM (active)
DU-145
  GI50: 0.402 µM (active)
OVCAR-8
  GI50: 1.17 µM (inactive)
HT-29
  GI50: 0.299 µM (active)
OVCAR-3
  GI50: 0.217 µM (active)
HCC 2998
  GI50: 5.21 µM (inactive)
SNB-19
  GI50: 0.929 µM (active)
786-0
  GI50: 0.502 µM (active)
A498
  GI50: 0.454 µM (active)
HOP-92
  GI50: 3.6 µM (inactive)
OVCAR-4
  GI50: 20 µM (inactive)

## CCc1c[n+]2c(cc1C1=CN3c4ccccc4[C@]45CCN6C/C(=C/CO)[C@H](C[C@H]64)[C@@H]([C@@H]1O)[C@H]35)-c1[nH]c3ccccc3c1CC2
Hs-578T
  GI50: > 50 µM (inactive)
K562
  GI50: > 50 µM (inactive)
SF-295
  GI50: > 50 µM (inactive)
CCRF-CEM
  GI50: > 50 µM (inactive)
TK-10
  GI50: > 50 µM (inactive)
COLO 205
  GI50: > 50 µM (inactive)
ACHN
  GI50: > 50 µM (inactive)
NCI-H460
  GI50: > 50 µM (inactive)
LOX IMVI
  GI50: > 50 µM (inactive)
M14
  GI50: > 50 µM (inactive)
HCT-15
  GI50: > 50 µM
SF-268
  GI50: > 50 µM (inactive)
SNB-75
  GI50: > 50 µM (inactive)
UO-31
  GI50: > 50 µM (inactive)
UACC-62
  GI50: > 50 µM (inactive)
HL-60
  GI50: > 50 µM (inactive)
MDA-MB-231
  GI50: > 50 µM (inactive)
SK-MEL-28
  GI50: > 50 µM (inactive)
KM12
  GI50: > 50 µM (inactive)
NCI-H522
  GI50: > 50 µM (inactive)
MOLT-4
  GI50: > 50 µM (inactive)
T47D
  GI50: > 50 µM (inactive)
NCI-H226
  GI50: > 50 µM (inactive)
MDA-MB-435
  GI50: > 50 µM (inactive)
SK-MEL-2
  GI50: > 50 µM (inactive)
SN12C
  GI50: > 50 µM (inactive)
PC-3
  GI50: > 50 µM (inactive)
NCI-H23
  GI50: > 50 µM (inactive)
SK-MEL-5
  GI50: > 50 µM (inactive)
OVCAR-5
  GI50: > 50 µM (inactive)
CAKI-1
  GI50: > 50 µM (inactive)
MDA-N
  GI50: > 50 µM (inactive)
SW-620
  GI50: > 50 µM (inactive)
UACC-257
  GI50: > 50 µM (inactive)
SR
  GI50: > 50 µM (inactive)
U-251
  GI50: > 50 µM (inactive)
IGROV-1
  GI50: > 50 µM (inactive)
NCI/ADR-RES
  GI50: > 50 µM (inactive)
HOP-62
  GI50: > 50 µM (inactive)
A549
  GI50: > 50 µM (inactive)
RPMI-8226
  GI50: > 50 µM (inactive)
EKVX
  GI50: > 50 µM (inactive)
MCF7
  GI50: > 50 µM (inactive)
SF-539
  GI50: > 50 µM (inactive)
RXF 393
  GI50: > 50 µM (inactive)
HCT-116
  GI50: > 50 µM (inactive)
Malme-3M
  GI50: > 50 µM (inactive)
DU-145
  GI50: > 50 µM (inactive)
OVCAR-8
  GI50: > 50 µM (inactive)
HT-29
  GI50: > 50 µM (inactive)
OVCAR-3
  GI50: > 50 µM (inactive)
HCC 2998
  GI50: > 50 µM (inactive)
SNB-19
  GI50: > 50 µM (inactive)
BT-549
  GI50: > 50 µM (inactive)
786-0
  GI50: > 50 µM (inactive)
SK-OV-3
  GI50: > 50 µM (inactive)
A498
  GI50: > 50 µM (inactive)
HOP-92
  GI50: > 50 µM (inactive)
OVCAR-4
  GI50: > 50 µM (inactive)

## COc1ccc(-c2cc(Cc3cccs3)c(=O)[nH]n2)cc1
SF-295
  GI50: > 100 µM (inactive)
TK-10
  GI50: > 100 µM (inactive)
COLO 205
  GI50: > 100 µM (inactive)
ACHN
  GI50: 32.7 µM (inactive)
DMS-273
  GI50: > 100 µM (inactive)
HCT-15
  GI50: 49 µM
SF-268
  GI50: > 100 µM (inactive)
SNB-75
  GI50: 29.5 µM (inactive)
UO-31
  GI50: 82 µM (inactive)
UACC-62
  GI50: 56.9 µM (inactive)
SK-MEL-28
  GI50: 95.1 µM (inactive)
KM12
  GI50: > 100 µM (inactive)
NCI-H226
  GI50: > 100 µM (inactive)
DMS-114
  GI50: 74.6 µM (inactive)
SK-MEL-2
  GI50: > 100 µM (inactive)
SN12C
  GI50: > 100 µM (inactive)
NCI-H23
  GI50: 56.8 µM (inactive)
SK-MEL-5
  GI50: 19 µM (inactive)
OVCAR-5
  GI50: > 100 µM (inactive)
SW-620
  GI50: > 100 µM (inactive)
UACC-257
  GI50: 42.3 µM (inactive)
KM-20L2
  GI50: 85.5 µM (inactive)
U-251
  GI50: > 100 µM (inactive)
IGROV-1
  GI50: > 100 µM (inactive)
LXFL 529
  GI50: 53.8 µM (inactive)
SNB-78
  GI50: > 100 µM (inactive)
A549
  GI50: 57 µM (inactive)
EKVX
  GI50: > 100 µM (inactive)
SF-539
  GI50: > 100 µM (inactive)
RXF 393
  GI50: 83.8 µM (inactive)
HCT-116
  GI50: > 100 µM (inactive)
Malme-3M
  GI50: > 100 µM (inactive)
OVCAR-8
  GI50: > 100 µM (inactive)
HT-29
  GI50: 96.2 µM (inactive)
OVCAR-3
  GI50: 29.6 µM (inactive)
HCC 2998
  GI50: > 100 µM (inactive)
SNB-19
  GI50: > 100 µM (inactive)
786-0
  GI50: > 100 µM (inactive)
SK-OV-3
  GI50: > 100 µM (inactive)
HOP-92
  GI50: 49.9 µM (inactive)
M19-MEL
  GI50: 40.3 µM (inactive)
